Assay results as given in patent US6500842B1, “8-hydroxy-7-substituted quinolines as anti-viral agents” (Pharmacia & Upjohn Company, priority 1996, dated 2002).
pIC50: −log10 of the molar value. “And” between values parts separate entries of the source, which are not always exact repeats. Identical values can stand only once.

Legend:
HCMV polymerase = molecular target: T1, HCMV polymerase (Human cytomegalovirus, UniProt P08546); assay: HCMV polymerase assay (scintillation proximity assay); assay type: biochemical; conditions: Table 5, pol type CMV; for pIC50: read-out: IC50
T1 construct: made in house; host or cells: recombinant baculovirus-infected SF-9 cells
T1 sequence (P08546 whole entry): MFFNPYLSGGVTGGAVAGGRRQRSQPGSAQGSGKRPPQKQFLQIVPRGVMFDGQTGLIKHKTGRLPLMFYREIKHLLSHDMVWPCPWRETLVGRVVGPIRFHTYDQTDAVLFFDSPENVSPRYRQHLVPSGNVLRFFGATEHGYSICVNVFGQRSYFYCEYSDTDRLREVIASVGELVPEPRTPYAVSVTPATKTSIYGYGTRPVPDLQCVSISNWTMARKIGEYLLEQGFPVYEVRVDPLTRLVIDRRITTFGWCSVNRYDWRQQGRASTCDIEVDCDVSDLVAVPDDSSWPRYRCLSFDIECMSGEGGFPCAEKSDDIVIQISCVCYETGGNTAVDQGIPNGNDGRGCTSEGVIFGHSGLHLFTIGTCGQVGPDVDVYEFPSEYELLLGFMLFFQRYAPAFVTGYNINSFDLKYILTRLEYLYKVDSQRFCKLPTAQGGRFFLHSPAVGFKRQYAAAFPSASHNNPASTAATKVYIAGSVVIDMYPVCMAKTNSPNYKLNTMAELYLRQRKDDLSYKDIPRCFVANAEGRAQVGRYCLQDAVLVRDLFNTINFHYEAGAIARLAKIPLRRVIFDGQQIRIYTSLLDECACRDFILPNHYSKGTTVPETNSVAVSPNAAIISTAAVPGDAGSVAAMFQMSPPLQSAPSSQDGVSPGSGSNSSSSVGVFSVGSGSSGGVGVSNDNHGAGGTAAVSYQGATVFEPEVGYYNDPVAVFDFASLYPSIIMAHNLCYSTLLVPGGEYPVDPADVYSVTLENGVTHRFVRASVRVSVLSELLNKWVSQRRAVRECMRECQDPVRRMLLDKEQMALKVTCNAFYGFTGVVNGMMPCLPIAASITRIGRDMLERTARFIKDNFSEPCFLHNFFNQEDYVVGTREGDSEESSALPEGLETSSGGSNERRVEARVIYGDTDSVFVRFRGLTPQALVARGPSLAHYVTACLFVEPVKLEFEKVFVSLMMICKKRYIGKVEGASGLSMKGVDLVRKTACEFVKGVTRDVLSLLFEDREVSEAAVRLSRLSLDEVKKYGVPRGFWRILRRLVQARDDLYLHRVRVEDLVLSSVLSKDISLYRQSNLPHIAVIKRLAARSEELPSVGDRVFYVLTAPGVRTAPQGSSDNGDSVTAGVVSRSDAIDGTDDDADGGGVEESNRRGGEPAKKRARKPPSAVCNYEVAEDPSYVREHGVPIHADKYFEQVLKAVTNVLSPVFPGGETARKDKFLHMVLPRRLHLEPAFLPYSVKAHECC
In short: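 Baculovirus/SF-9-expressed purified enzyme in HEPES pH 7.5, KCl, 4.5 mM MgCl2, BSA, with 90 nM ³H-dTTP, ± 2 mM CHAPS; started with 6 nM biotinylated poly(dA)-oligo(dT), 30 min, stopped with EDTA. Incorporation read by streptavidin SPA beads; IC50 by linear regression.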

CMV polymerase = molecular target: T2, CMV polymerase (Human cytomegalovirus, UniProt P08546); assay: modified version of the HCMV polymerase assay (100% DMSO dilution, DTT, different enzyme lot); assay type: biochemical; conditions: Table 6; for inhibition at 3.13 µM: Concentration 3.13 μM; for inhibition at 6.25 µM: Concentration 6.25 μM; for inhibition at 12.5 µM: Concentration 12.5 μM; for inhibition at 25 µM: Concentration 25 μM; for inhibition at 50 µM: Concentration 50 μM; for inhibition at 100 µM: Concentration 100 μM; for inhibition at 200 µM: Concentration 200 μM; for pIC50: read-out: IC50
T2 construct: made in house; host or cells: recombinant baculovirus-infected SF-9 cells
T2 sequence (P08546 whole entry): as above
Protocol: The HCMV polymerase assay is performed using a scintillation proximity assay (SPA) as described in several references, such as N. D. Cook, et al., Pharmaceutical Manufacturing International, pages 49-53 (1992); K. Takeuchi, Laboratory Practice, September issue (1992); U.S. Pat. No. 4,568,649 (1986); which are incorporated by reference herein. Reactions are performed in 96-well plates. The assay is conducted in 100 μl volume with 5.4 mM HEPES (pH 7.5), 11.7 mM KCl, 4.5 mM MgCl2, 0.36 mg/ml BSA, and 90 nM ^3H-dTTP. Assays are run with and without CHAPS, (3-[(3-Cholamidopropyl)-dimethylammonio]-1-propane-sulfonate) at a final concentration of 2 mM. HCMV is diluted in enzyme dilution buffer containing 50% glycerol, 250 mM NaCl, 10 mM HEPES (pH 7.5), 100 pg/ml BSA, and 0.01% sodium azide. The HCMV polymerase, which is expressed in recombinant baculovirus-infected SF-9 cells and purified according to literature procedures, is added at 10% (or 10 μl) of the final reaction volume, i.e., 100 μl. Compounds are diluted in 50% DMSO and 10 μl are added to each well. Control wells contain an equivalent concentration of DMSO. Unless noted otherwise, reactions are initiated via the addition of 6 nM biotinylated poly(dA)-oligo(dT) template/primer to reaction mixtures containing the enzyme, substrate, and compounds of interest. Plates are incubated in a 25° C. of 37° C. H2O bath and terminated via the addition of 40 μl/reaction of 0.5 M EDTA (pH 8) per well. Reactions are terminated within the time-frame during which substrate incorporation is linear and varied depending upon the enzyme and conditions used, i.e., 30 min. for HCMV polymerase. Ten μl of streptavidin-SPA beads (20 mg/ml in PBS/10% glycerol) are added following termination of the reaction. Plates are incubated 10 min. at 37° C., then equilibrated to room temperature, and counted on a Packard Topcount. Linear regressions are performed and IC50's are calculated using computer software. Results of the testing of compounds of the present invention in this assay are shown in Tables 1, 2, 5, 9, 10, 11, 13 (except for the last compound which was tested under modified conditions) and 14 below.
A modified version of the above HCMV polymerase assay is performed as described above, but with the following changes: Compounds are diluted in 100% DMSO until final dilution into assay buffer. In the previous assay, compounds are diluted in 50% DMSO. 4.5 mM dithiotherotol (DTT) is added to the polymerase buffer.

SMILES | pIC50 (HCMV polymerase) | melting point [°C] | % Inhib (HCMV polymerase; Conc 1.00e-004 M) [%] | % Inhib (HCMV polymerase; Conc 1.30e-005 M) [%] | % Inhib (HCMV polymerase; Conc 2.50e-005 M) [%] | % Inhib (HCMV polymerase; Conc 3.13e-006 M) [%] | % Inhib (HCMV polymerase; Conc 5.00e-005 M) [%] | % Inhib (HCMV polymerase; Conc 6.25e-006 M) [%] | inhibition at 3.13 µM (CMV polymerase) [%] | inhibition at 6.25 µM (CMV polymerase) [%] | inhibition at 12.5 µM (CMV polymerase) [%] | inhibition at 25 µM (CMV polymerase) [%] | inhibition at 50 µM (CMV polymerase) [%] | inhibition at 100 µM (CMV polymerase) [%] | inhibition at 200 µM (CMV polymerase) [%] | pIC50 (CMV polymerase)
COc1ccc(/C=C/c2ccc3ccc(C(=O)NCC(O)c4ccccc4)c(O)c3n2)cc1 (stereo not shown) [Example 53, 8-Hydroxy-N-(2-hydroxy-2-phenylethyl)-2-[2-(4-methoxyphenyl)ethenyl]-7-quinolinecarboxamide] | > 5.51 and 6.52 | 203 to 205 | – | – | – | – | – | – | – | – | – | – | – | – | – | –
COc1ccc(/C=C/c2ccc3ccc(C(=O)NCCSc4ccccc4)c(O)c3n2)cc1 [Example 54, 8-Hydroxy-2-[2-(4-methoxyphenyl)ethenyl]-N-[2-(phenylthio)-ethyl]-7-quinolinecarboxamide] | > 5.51 and 6.52 | 163 to 165 | – | – | – | – | – | – | – | – | – | – | – | – | – | –
O=C(NCc1ccc(Cl)cc1)c1ccc2ccc(C(F)(F)F)nc2c1O [Example 55, N-[(4-Chlorophenyl)methyl]-8-hydroxy-2-(trifluoromethyl)-7-quinolinecarboxamide] | 4.50 and 4.71 | 92 to 94 | – | – | – | – | – | – | – | – | – | – | – | – | – | –
O=C(NCc1ccc(Cl)cc1)c1ccc2ccc[n+]([O-])c2c1O [Example 58, N-[(4-Chlorophenyl)methyl]-8-hydroxy-7-quinoline-N-oxide carboxamide] | 4.30 | 178 to 183 | 65 | 27.9 | 40.2 | −2.9 | 46.2 | 2.4 | – | – | – | – | – | – | – | –
Cc1ccc2c(Cl)cc(S(=O)(=O)NCc3ccccn3)c(O)c2n1 [Example 59, 5-Chloro-8-hydroxy-2-methyl-N-(2-pyridinylmethyl)-7-quinolinesulfonamide] | – | 185 to 186 | – | – | – | – | – | – | -7 | -6 | -3 | 0 | 14 | 31 | 43 | < 3.70
Cc1ccc2c(Cl)cc(S(=O)(=O)NCCc3ccc(Cl)cc3)c(O)c2n1 [Example 60, 5-Chloro-N-[2-(4-chlorophenyl)ethyl]-8-hydroxy-2-methyl-7-quinolinesulfonamide] | – | 131 to 133 | – | – | – | – | – | – | 30 | 19 | 31 | 32 | 51 | 55 | 70 | 4.24
Cc1ccc2c(Cl)cc(S(=O)(=O)NCCCCc3ccccc3)c(O)c2n1 [Example 61, 5-Chloro-8-hydroxy-2-methyl-N-(4-phenylbutyl)-7-quinoline-sulfonamide] | – | 84 to 86 | – | – | – | – | – | – | 13 | 15 | 23 | 30 | 30 | 38 | 51 | < 3.70
Cc1ccc2c(Cl)cc(S(=O)(=O)NCCc3ccccn3)c(O)c2n1 [Example 62, 5-Chloro-8-hydroxy-2-methyl-N-[2-(2-pyridinyl)ethyl]-7-quinolinesulfonamide] | – | 153 to 155 | – | – | – | – | – | – | 1 | 3 | 6 | 10 | 14 | 33 | 42 | < 3.70
O=S(=O)(NCCSc1ccccc1)c1cc(Cl)c2ccc(/C=C/c3ccccc3)nc2c1O [Example 63, (E)-5-Chloro-8-hydroxy-2-(2-phenylethenyl)-N-[2-(phenylthio)ethyl]-7-quinolinesulfonamide] | – | 187 to 193 | – | – | – | – | – | – | 29 | 34 | 49 | 71 | 74 | 92 | – | 4.94
